In patent US6537587B1, “Compositions containing muscle-derived active agents” (Can-Fite Biopharma Ltd., priority 1999, dated 2003):

System: peripheral blood leukocytes and neutrophils
Details: cyclophosphamide only, 50 mg/kg i.p.; blood at 96 hours; FIG. 4
Method: Mice were injected intraperitoneally (i.p.) with 50 mg/kg body weight of cyclophospharnide. The mice were then divided into the following three groups:
2. Mice receiving cyclophosphamide only (control 1); and
3. An additional group of mice received oral administration of water only (control 2).
Ninety six hours after the beginning of receiving the above treatments, blood samples were taken from each of the treated mice. Blood cell counts were carried out in a Coulter counter and differential cell counts were performed on smear preparations stained with May-Grunvald-Giemsa solution.

## O=P1(N(CCCl)CCCl)NCCCO1 (centres unmarked) [cyclophosphamide]
  number of neutrophils compared to mice without chemotherapeutic treatment (control 2): reduced
  number of peripheral blood leukocytes compared to mice without chemotherapeutic treatment (control 2): reduced
